In data set [1] the target is T1, human DGAT2 (Homo sapiens, UniProt Q96PD7).
T1 sequence (Q96PD7 1-388): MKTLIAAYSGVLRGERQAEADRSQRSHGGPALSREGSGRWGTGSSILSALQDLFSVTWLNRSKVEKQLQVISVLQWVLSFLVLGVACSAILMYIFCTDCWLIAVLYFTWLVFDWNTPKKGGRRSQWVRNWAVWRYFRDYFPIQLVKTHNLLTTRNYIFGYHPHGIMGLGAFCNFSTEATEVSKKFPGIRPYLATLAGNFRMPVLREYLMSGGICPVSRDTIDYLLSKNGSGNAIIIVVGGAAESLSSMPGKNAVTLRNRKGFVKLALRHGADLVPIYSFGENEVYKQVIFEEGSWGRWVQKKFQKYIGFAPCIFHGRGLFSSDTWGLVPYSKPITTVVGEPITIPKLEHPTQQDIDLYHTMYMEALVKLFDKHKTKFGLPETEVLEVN
The data set is described as follows: Diacylglycerol Acyltransferase 2 (DGAT2) Biochemical Assay. The settings on record: geometric mean; recombinant human DGAT2 with FLAG tag, 1 hr at RT, 14C oleoyl-CoA; read-out: IC50 (nM), ± SD, (n) = number of experiments. The protocol: The in vitro inhibitory activity of compounds against human DGAT2 is evaluated in this assay. The assay uses recombinant human DGAT2 with a FLAG tag at the amino terminus, expressed in genetically engineered insect SF9 cells, and purified through affinity chromatography.
DGAT2 catalyzes transfer of an acyl moiety from acyl-Coenzyme A onto diacylglycerol, to form triacylglycerol. In this particular embodiment of the assay oleate is used as the acyl moiety that is transferred. To facilitate miscibility of all lipid components, all lipids used in the assay contain oleyl moiety as the only acyl group.
Prior to starting the assay prepare a mixture of dioleoyl glycerol (DOG) and dioleoyl phosphatidylcholine (DOPC) at 3:7 molar ratio. Mix appropriate amount of DOPC and DOG dissolved in chloroform in a borosilicate glass test tube. Evaporate the solvent under stream of argon to form a film of lipid. Subsequently, place the test-tube under vacuum (<1 Torr) for 2 hrs to remove residual solvent. Add appropriate amount of buffer containing TrisHCl (pH 7.5, 150 mM), and sucrose (250 mM) to achieve 20 mM concentration of total lipid. Assure complete suspension of the lipid film by vigorous vortexing. Sonicate the contents of the tube in a water bath sonicator under standing wave conditions until the suspension turns from turbid to translucent, to assure conversion of liposomes into small unilamellar vesicles (SUVs)
Prepare the test compound by dissolving it and serially diluting in half-log increments in DMSO. For each concentration, perform 10-fold step dilution of compound solution in DMSO into buffer containing TrisHCl (pH 7.5, 150 mM), and sucrose (250 mM).
Mix SUV suspensions and compound solution with other components of the assay to achieve the following concentration of individual ingredients: TrisHCl (pH 7.5, 150 mM), sucrose (250 mM), MgCl2 (5 mM,), dithiothreitol (DTT) (0.5 mM), oleoyl coenzyme A (oleoyl-CoA) (12 μM), 1-^14C oleoyl coenzyme A (oleyl-CoA-^14C) (8 μM), dioleoyl glycerol (DOG) (0.6 mM), and dioleoyl phosphatidylcholine (DOPC) (1.4 mM), DGAT2 protein (0.5 nM), DMSO (1%, v/v), with test compound concentration within a 1 nM to 100 μM range, in 30 μl total volume. Incubate the reaction for 1 hr at RT (approximately 21° C.) in individual wells of a 384-well plate. After 1 hr, stop the reaction by adding 23 μl stop solution containing a mixture of isopropanol:EtOH:heptane:DI water: 1 N NaOH (59:12.5:15:11:2.5, by volume). Add 42 μL Microscint E and then incubate mixture overnight to extract the triglyceride into the organic solvent layer containing scintillant. Measure the radioactivity using a Perkin-Elmer TopCount instrument. […] Calculate the degree of inhibition of DGAT2 by measuring the radioactivity at 10 different concentrations for each compound. […]

The target in data set [2] is T1, human DGAT2. The data set is described as follows: Diacylglycerol Acyltransferase 2 (DGAT2) Cell-Based Assay (HepG2). Set-up: This assay uses human hepatoma cell-line, HepG2, as a source of acyltransferase activity; endogenous in cells; host or cells: HepG2. The settings on record: geometric mean; HepG2 cells, incorporation of 13C18-oleate into triolein normalized to POPC; read-out: IC50 (nM) mean ± SD, (n) = number of experiments. The protocol:
The inhibitory activity of compounds against human DGAT2 in a cell environment is evaluated in this assay. This assay uses human hepatoma cell-line, HepG2, as a source of acyltransferase activity.
HepG2 cell line is a commonly used model for metabolic reactions that occur in human hepatocytes in vivo. Synthesis of triglyceride in this cell line is followed by measuring incorporation of isotopically labeled oleate into triolein (a triglyceride with 3 oleoyl moieties).
Dispense the HepG2 cells into a 96-well microplate, which has been previously coated with Poly-D-lysine, in an amount of 50,000 cells/well in 100 μL Minimal Essential Media (MEM) with 10% Fetal Bovine Serum (FBS). Incubate the cells for 16 hr at 37° C. Replace the cell culture medium with MEM containing 2% Bovine Serum Albumin. Dissolve the test compound in 0.5% DMSO and prepare serial dilutions in half-log increments. Add the serially diluted test compound into separate wells. Incubate for 0.5 hr at 37° C. Thereafter replace the cell culture medium with a medium of the same composition, but which includes 50 μM ^13C18-oleate and 300 μM hydropropyl-β-cyclodextrine. Incubate for an additional 4 hr at 37° C. Discard the cell culture medium by flipping the microplate over thereby draining the wells and then soaking up any residual media from the wells with a paper towel. Dry the microplate at ambient temperature (˜21° C.) for 10 min. Add aliquots of 125 μL of solvent (isopropyl alcohol:tetrahydrofuran:methanol:chloroform, in a ratio of 90:10:2.5:2.5 v/v), an internal standard for phosphatidylcholine (PC), and an internal standard for triacylglycerol (TG) to each well. Seal and shake the plate for 30 min at ambient temperature. Transfer 100 μL aliquots of the upper phase of each well into a wells of a deep-well plate (2 mL per well). Analyze the contents of the wells using mass-spectrometry analysis. Measure both triolein with a single ^13C18-oleate moiety and POPC using liquid chromatography/mass spectroscopy method (LC/MS). The degree of incorporation of a single ^13C18-oleate moiety into triolein, normalized to the concentration of 1-palmitoyl-2-oleoyl-phosphatidylcholine (POPC) is used as a measure of DGAT2 activity.
Determine the IC50 for each compound, using a 4 parameter logistic curve fit.

The subject of data set [3] is plasma triglycerides. Nature of the data set: In Vivo Pharmacodynamic Assay: reduction in plasma triglycerides in mice. The settings on record: Mus musculus, po; male C57BL6 mice, gavage, with 3 mg/kg DGAT1 inhibitor and tyloxapol; reduction in plasma triglycerides vs control; read-out: ED50 (mg/kg) SD. The protocol: This assay measures the potency of compounds by measuring the reduction in plasma triglycerides in mice treated with the test compounds compared to control animals that are treated only with the vehicle solution. Male, C57BL6 mice (10-11 weeks old, each approximately 22 g in weight) are used in this assay.
Triglycerides synthesized in the liver are secreted into circulation as a component of the Very Low Density Lipoprotein (VLDL). To prevent degradation of triglycerides in circulation by the Lipoprotein Lipase (LPL), this assay uses IV injection of a detergent, tyloxapol, which inhibits activity of LPL. Since another enzyme, DGAT1, participates in the synthesis of liver triglyceride, a saturating dose of a DGAT1 inhibitor (sodium {trans-4-[4-(4-amino-7,7-dimethyl-7H-pyrimido[4,5-b][1,4]oxazin-6-yl)phenyl]cyclohexyl}acetate, IUPAC ACDLABS naming convention, see Dow et al. Bioorg. & Med. Chem., (2011) 21(20), 6122-6128) is also used in this assay. […]
Collect the blood via cardiac puncture into tube containing the anti-coagulant EDTA. […] Freeze the plasma samples on dry ice until they are to be analyzed. […] Reduction in total triglycerides in the test mice is calculated relative to the concentration of triglycerides in the control mice.

In data set [4] the test system is LDL-c, VLDL-c and TG serum concentrations. Nature of the data set: In Vivo Efficacy Model: LDL-c, VLDL-c and TG in LDL receptor-deficient mice. The settings on record: 30 mg/kg bid, fourteen days, oral gavage, vs control group. The source says:
The compounds described herein can be evaluated in an in vivo efficacy model. This assay measures the potency of compounds by measuring the reduction in low density lipoprotein cholesterol (LDL-c), very low density lipoprotein cholesterol (VLDL-c), and triglycerides (TG). Male, LDL receptor-deficient mice (29 weeks old, each approximately 30 g in weight) are used in this assay.
Feed the mice a standard mouse chow diet for two weeks prior to dosing. Prepare a test solution for oral gavage by suspend the compounds in acacia at 0.3, 1, and 3 mg/mL. Separate the mice into a test group and a control group. Thereafter at the first day of the third week dose the mice in the test group with the test solution for fourteen days, BID. Similarly dose the mice in the control group with just the vehicle without any of the test compound. Four hours after the last dose euthanize the mice with CO2. Immediately collect the blood via cardiac puncture. Isolate the serum to measure serum triglycerides as well as cholesterol in individual lipoprotein fractions. Separate the lipoprotein fractions by known HPLC methods. Determine the cholesterol concentration associated with each lipoprotein fraction by a colorimetric method (Roche Cholesterol/HP Reagent 11875540), using isolated lipoprotein fractions with known cholesterol concentration as standards. Results obtained at the highest dose, can be expressed as the percentage of change in comparison of the LDL-c, VLDL-c and TG serum concentrations of mice in the test group to those of mice n the control group.
The results for the compound of Example 24 at 30 mg/kg bid are listed below in Table 21.

The conditions of data set [5]: therapy with lomitapide; cited from earlier work.

With `CCc1cnc(NCc2ccnc(Oc3ccc(CS(N)(=O)=O)cc3F)c2)nc1` [Example 7, [4-[[4-[[(5-ethylpyrimidin-2-yl)amino]methyl]-2-pyridyl]oxy]-3-fluoro-phenyl]methanesulfonamide], the IC50 (as a rule, the concentration at which inhibition is half-maximal) amounted to 27 ± 15 nM in data set [1] and 36 ± 1 nM in data set [2].
As for `CNS(=O)(=O)Cc1ccc(Oc2cc(CNc3ncc(Cl)cn3)nc(C(F)(F)F)n2)cc1` [Example 10, 1-[4-[6-[[(5-Chloropyrimidin-2-yl)amino]methyl]-2-(trifluoromethyl)pyrimidin-4-yl]oxyphenyl]-N-methyl-methanesulfonamide], the IC50 in data set [1] amounted to 52 ± 27 nM; in data set [2] it was 17 ± 1 nM.
As for `CN1CCN(c2nc(CNc3ncc(Cl)cn3)cc(Oc3ccc(CS(N)(=O)=O)cc3)n2)CC1` [Example 24, [4-[6-[[(5-Chloropyrimidin-2-yl)amino]methyl]-2-(4-methylpiperazin-1-yl)pyrimidin-4-yl]oxyphenyl]methanesulfonamide], in data set [1], the IC50 was 579 ± 169 nM. The ED50 in data set [3] came to 0.8 ± 0.09 mg/kg. Further, in data set [4], the LDL-c % change is −61%, the Triglycerides % change is recorded as −56% and the VLDL-c % change was −74%. For the same molecule, in data set [2], the IC50 is 9 ± 6 nM.
For `CCc1cnc(NCc2cc(Oc3ccc(CCNS(C)(=O)=O)cc3)nc(N)n2)nc1` [Example 57, N-[2-[4-[2-Amino-6-[[(5-ethylpyrimidin-2-yl)amino]methyl]pyrimidin-4-yl]oxyphenyl]ethyl]methanesulfonamide], the IC50 in data set [1] was 103 ± 51 nM; in data set [2], 53 nM. The ED50 in data set [3] came out at 0.23 ± 0.03 mg/kg.
In the case of `O=C(NC1CCN(CCCCC2(C(=O)NCC(F)(F)F)c3ccccc3-c3ccccc32)CC1)c1ccccc1-c1ccc(C(F)(F)F)cc1` [lomitapide], the “increase in the liver fat content” value in data set [5] was 8 fold.

Source of the values: patent US20180162825A1, “NOVEL DGAT2 INHIBITORS” (Eli Lilly and Company, priority 2015, published 2018).
